Measured values published in patent US11439637B2, “Antiproliferative compounds and bispecific antibody against BCMA and CD3 for combined use” (Celgene Corporation, priority 2018, dated 2022).
Entries after “also recorded” stand apart in the source; their conditions may differ.

Assays:
[1] = system: plasma cell leukemia (PCL) cell line L363; experiment: Co-cultures of effector T cells and target cells after pretreatment with compounds, bispecific antibody-induced target cell killing (L363); format: cell-based, human; settings: L363 target cells pretreated with Compound 2 (1 nM) for 72 hours, washed; co-culture 72 hours, E:T 1:1; vs DMSO
Description: (§1) CD3+ T-cells were isolated from peripheral blood mononuclear cell fractions from healthy donors using magnetic-activated cell sorting. Cells were thawed in RPMI 1640 culture media supplemented with 10% (v/v) fetal bovine serum (FBS), non-essential amino acids and sodium pyruvate. All cell cultures and cell treatments were performed in a 37° C., 5% CO2 incubator for time periods as indicated. T-cells were then labeled with CFSE (carboxyfluorescein succinimidyl ester) according to the manufacturer's instructions, and allowed to recover overnight in the presence of 1 ng/mL human IL-7. T-cells were treated with DMSO (control) or Compound 2 as single agent for 16 hours before co-culture. The multiple myeloma H929 and OPM-2 cell lines or the plasma cell leukemia (PCL) cell line L363 were labeled with CellTrace™ Violet, then pretreated with DMSO (control) or Compound 2 as a single agent for 72 hours. T-cells and target cells were then washed to remove compounds and co-cultured in the presence of increasing concentrations of a bispecific antibody specifically binding to human B cell maturation antigen (BCMA) and to human CD3ε (CD3) as provided herein, for 72 hours, at different effector T-cell (E) to target cell (T) ratios. […]

[2] = system: multiple myeloma OPM-2 cell line; experiment: Co-cultures of effector T cells and target cells after pretreatment with compounds, cytotoxicity assays with OPM-2 cells; format: cell-based, human; settings: E:T 1:5
Description: CD3+ T-cells were isolated from peripheral blood mononuclear cell fractions from healthy donors using magnetic-activated cell sorting. Cells were thawed in RPMI 1640 culture media supplemented with 10% (v/v) fetal bovine serum (FBS), non-essential amino acids and sodium pyruvate. All cell cultures and cell treatments were performed in a 37° C., 5% CO2 incubator for time periods as indicated. T-cells were then labeled with CFSE (carboxyfluorescein succinimidyl ester) according to the manufacturer's instructions, and allowed to recover overnight in the presence of 1 ng/mL human IL-7. T-cells were treated with DMSO (control) or Compound 2 as single agent for 16 hours before co-culture. The multiple myeloma H929 and OPM-2 cell lines or the plasma cell leukemia (PCL) cell line L363 were labeled with CellTrace™ Violet, then pretreated with DMSO (control) or Compound 2 as a single agent for 72 hours. T-cells and target cells were then washed to remove compounds and co-cultured in the presence of increasing concentrations of a bispecific antibody specifically binding to human B cell maturation antigen (BCMA) and to human CD3ε (CD3) as provided herein, for 72 hours, at different effector T-cell (E) to target cell (T) ratios. The cells were collected at the end of co-culture for analysis of target cell apoptosis and necrosis by flow cytometry using APC Annexin V Apoptosis Detection Kit with 7-AAD, following the manufacturer's directions (BioLegend).

[3] = system: multiple myeloma H929 cell line; experiment: Co-cultures of effector T cells and target cells after pretreatment with compounds, bispecific antibody-induced target cell killing (H929); format: cell-based, human; settings: H929 target cells pretreated with Compound 2 (1 nM) for 72 hours, washed; co-culture 72 hours, E:T 1:3; vs DMSO
Description: as §1

[4] = system: lenalidomide-resistant multiple myeloma cell line H929-1051; experiment: Co-cultures of effector T cells and lenalidomide-resistant multiple myeloma target cells after pretreatment with compounds; format: cell-based, human; settings: H929-1051 target cells pretreated 72 hours with Compound 2 (1 nM) or pomalidomide (100 nM), washed; co-culture 72 hours, E:T 1:3; vs DMSO
Excerpt: Co-cultures of effector T cells (E) and lenalidomide-resistant multiple myeloma target cells (T) after pretreatment with compounds. CD3+ T-cells were isolated from peripheral blood mononuclear cell fractions from three different healthy donors (donors D, E and F) using magnetic-activated cell sorting. Cells were thawed in RPMI 1640 culture media supplemented with 10% (v/v) fetal bovine serum (FBS), non-essential amino acids, sodium pyruvate and penicillin/streptomycin. All cell cultures and cell treatments were performed in a 37° C., 5% CO2 incubator for time periods as indicated. T-cells were then labeled with CFSE (carboxyfluorescein succinimidyl ester) according to the manufacturer's instructions, and allowed to recover overnight in the presence of 1 ng/mL human IL-7. The lenalidomide-resistant multiple myeloma cell line H929-1051 was generated by long-term culture in the presence of increasing concentrations of lenalidomide, as previously described (Ghandi et al. Br. J. Haematol. 2014 January; 164(2):233-44) using methods described (Lopez-Girona et al. Leukemia. 2012 November; 26(11):2326-35). H929-1051 cells were labeled with CellTrace™ Violet, then pretreated with DMSO (control), pomalidomide, or Compound 2 as a single agent for 72 hours. T-cells and target cells were then washed to remove compounds and co-cultured in the presence of increasing concentrations of the bispecific antibody specifically binding to human B cell maturation antigen (BCMA) and to human CD3ε (CD3) as provided herein, for 72 hours, at a fixed effector T-cell (E) to target cell (T) ratio of 1:3. The cells were collected at the end of co-culture for analysis of target cell apoptosis and necrosis by flow cytometry using APC Annexin V Apoptosis Detection Kit with 7-AAD, following the manufacturer's directions (BioLegend).

[5] = system: multiple myeloma H929 cell line; experiment: Co-cultures of effector T cells and target cells with concurrent compound treatments; format: cell-based, human; settings: concurrent exposure to Compound 2 (1 nM) for 72 hours, T-cells of three donors, E:T 1:3, vs DMSO
Description: CD3+ T-cells were isolated from peripheral blood mononuclear cell fractions from three different healthy donors (donors A, B and C) using magnetic-activated cell sorting. Cells were thawed in RPMI 1640 culture media supplemented with 10% (v/v) FBS, non-essential amino acids, sodium pyruvate and penicillin/streptomycin. All cell cultures and treatments were performed in a 37° C., 5% CO2 incubator for time periods as indicated. T-cells were then labeled with CFSE (carboxyfluorescein succinimidyl ester) according to the manufacturer's instructions, and allowed to recover overnight in the presence of 1 ng/mL human IL-7. The multiple myeloma H929 cell line was labeled with CellTrace™ Violet, and allowed to recover overnight. T-cells and target cells were then washed and co-cultured in the presence of increasing concentrations of bispecific antibody specifically binding to human B cell maturation antigen (BCMA) and to human CD3ε (CD3) provided herein, for 72 hours, at a fixed effector T-cell (E) to target cell (T) ratio of 1:3. Co-cultures in the presence of bispecific antibody were performed in the presence of DMSO (control) or Compound 2. Cells were collected at the end of co-culture for analysis of target cell apoptosis and necrosis by flow cytometry using APC Annexin V Apoptosis Detection Kit with 7-AAD.

[6] = system: acute myeloid leukemia (AML); settings: administered alone; cited from earlier work
[7] = combination of effector T-cell pretreatment and target cell pretreatment with Compound 2 (1 nM)
[8] = either effector T-cells (16 hours) or target cells (72 hours) alone pretreated with Compound 2 (1 nM)

Row | Molecule | potency of the bispecific antibody [1] | efficacy of the bispecific antibody [2, 7] | potentiation of the bispecific antibody [2, 7] | efficacy of target cell killing by the bispecific antibody [2, 8] | potency of target cell killing by the bispecific antibody [2, 8] | maximal target cell killing induced by the bispecific antibody [3] | potency of the bispecific antibody [3] | maximal target cell killing induced by the bispecific antibody [4] | potency of the bispecific antibody [4] | maximal efficacy of target cell killing mediated by the bispecific antibody [5] | potency of the bispecific antibody [5] | response in treating acute myeloid leukemia (AML) at relapse [6]
1 | N#Cc1ccc(N2CCN(Cc3ccc(COc4cccc5c4CN([C@H]4CCC(=O)NC4=O)C5=O)cc3)CC2)c(F)c1 [Compound 2, (S)-4-(4-(4-(((2-(2,6-dioxopiperidin-3-yl)-1-oxoisoindolin-4-yl)oxy)methyl)benzyl)piperazin-1-yl)-3-fluorobenzonitrile] | significantly increased | increase in efficacy | greatest potentiation | increased | increased | significantly increased | significantly increased | increased; also recorded: enhances | increased; also recorded: enhances | improved; also recorded: enhances | significantly increased; also recorded: enhances | 
2 | Nc1cccc2c1C(=O)N(C1CCC(=O)NC1=O)C2=O (stereo not shown) [pomalidomide, reference compound] |  |  |  |  |  |  |  | not |  |  |  | 
3 | CT-011: anti-PD-1 antibody, a humanized antibody |  |  |  |  |  |  |  |  |  |  |  | failed to show response
